Columns and labels:
Type in all cases: cell-based, human
[1] = tested on: cleaved caspase 3 (c-Casp3); assay: Western blot of stem cells exposed to IAP antagonists and ponatinib (cleaved caspase 3); conditions: BE stem cells exposed to IAP antagonist and ponatinib; six-hour exposure; FIG. 42c
Description: Based on the properties of diverse IAP antagonists in combination with ponatinib towards BE stem cells, synthetic chemistry was employed to expand the repertoire of IAP antagonists available for these studies. A squaramide linker strategy was chosen for generating bivalent IAP antagonists based on its planar structure and separation of the headgroups that contain the peptide […] domains that interact with cIAP1, cIAP2, and XIAPs, and screened them in dose-response assays against BE stem cells in the presence and absence of ponatinib (FIG. 42d).

BE stem cells = assay: Survival of Barrett's esophagus (BE) stem cells, high-throughput screen and dose-response
Description: The present example describes methods used for testing the efficacy of compounds described herein. The selective growth of stem cells of cancers, of their precursor lesions, and of normal and chronically diseased epithelial tissues is described in the references below. In brief, biopsied tissues are reduced to single cell suspensions and plated onto lawns of irradiated 3T3-J2 feeder cells in specialized StemEcho media and libraries of colonies are evident in 7-10 days. Single cell-derived clones are generated by single cell FACS sorting to 384 well plates and wells with individual colonies are expanded, analyzed by molecular genetics, and grown as discrete clones.
After 2-5 days, the cells are fixed using paraformaldehyde and the human cells are labelled with human-specific antibodies followed by fluorochrome-labelled secondary antibodies. Human cell numbers are quantified via high-throughput imaging technology (CellInsight CX7 LED, Thermo), and data analyzed by Excel.
To learn more about the relative efficacy of these IAP antagonists in a synthetic lethal combination with ponatinib, we compared their effects in dose-response assays in vitro against BE stem cells. […]

[2] = tested on: RIPK1 S320/S166 phosphorylation, cIAP1, cIAP2, cleaved Caspase 3 in LGD stem cells; assay: Western blot of LGD stem cells (RIPK1 phosphorylation, cIAP1/cIAP2, cleaved Caspase 3); conditions: ponatinib 300 nM, 7532N 10 nM, 16 hr per FIG. 42j

## CN[C@@H](C)C(=O)N[C@H](C(=O)N1CCC[C@H]1C(=O)N[C@H]1c2ccccc2C[C@H]1OCC#CC#CCO[C@@H]1Cc2ccccc2[C@@H]1NC(=O)[C@@H]1CCCN1C(=O)[C@@H](NC(=O)[C@H](C)NC)C1CCCCC1)C1CCCCC1 [AZD5582]
[1]
  Induction of cleaved caspase 3 (c-Casp3), western blot: induced a cleaved caspase 3

## Cc1ccc(C(=O)Nc2ccc(CN3CCN(C)CC3)c(C(F)(F)F)c2)cc1C#Cc1cnc2cccnn12 [ponatinib]
BE stem cells; eight patient-derived BE stem cells, FIG. 40d
  Inhibition of BE stem cells: 20%

## CN[C@@H](C)C(=O)N[C@H](C(=O)N1CCC[C@H]1C(=O)N[C@H]1c2ccccc2C[C@H]1OCCOCCNc1c(NCCOCCO[C@@H]2Cc3ccccc3[C@@H]2NC(=O)[C@@H]2CCCN2C(=O)[C@@H](NC(=O)[C@H](C)NC)C2CCCCC2)c(=O)c1=O)C1CCCCC1 [Compound I-1]
[2]
  RIPK1 phosphorylation, cIAP1/cIAP2 and apoptosis in LGD stem cells, western blot: degradation of cIAP1 and cIAP2 without inducing cleaved Caspase 3

## Cc1cn(-c2cc(NC(=O)c3ccc(C)c(Nc4nccc(-c5cccnc5)n4)c3)cc(C(F)(F)F)c2)cn1 [nilotinib]
BE stem cells; screens against BE and ESO stem cells
  Identification in high-throughput screens: not identified in our screens

## CN[C@@H](C)C(=O)N[C@H]1CCCC[C@H]2CC[C@@H](C(=O)N[C@@H](c3ccccc3)c3cn(CCCCc4ccc(CCCCn5cc([C@@H](NC(=O)[C@@H]6CC[C@@H]7CCCC[C@H](NC(=O)[C@H](C)NC)C(=O)N76)c6ccccc6)nn5)cc4)nn3)N2C1=O [SM-164]
[1]
  Induction of cleaved caspase 3 (c-Casp3), western blot: induced a cleaved caspase 3
